Source: PubChem BioAssay (NCI)
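All cell lines were grown in 96-well plates and treated with compound for 48 hours. The concentration for full growth arrest is given as TGI.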

Assays:
Assay in all cases: DTP human tumour cell line panel, 48 h
[1] = system: 786-0 renal
[2] = system: A498 renal
[3] = system: A549 NSCLC
[4] = system: ACHN renal
[5] = system: BT-549 breast
[6] = system: CAKI-1 renal
[7] = system: CCRF-CEM leukemia
[8] = system: COLO 205 colon
[9] = system: DU-145 prostate
[10] = system: EKVX NSCLC
[11] = system: HCC-2998 colon
[12] = system: HCT-116 colon
[13] = system: HCT-15 colon
[14] = system: HL-60(TB) leukemia
[15] = system: HOP-62 NSCLC
[16] = system: HOP-92 NSCLC
[17] = system: HS 578T breast
[18] = system: HT29 colon
[19] = system: IGROV1 ovarian
[20] = system: K-562 leukemia
[21] = system: KM12 colon
[22] = system: LOX IMVI melanoma
[23] = system: M14 melanoma
[24] = system: MALME-3M melanoma
[25] = system: MCF7 breast
[26] = system: MDA-MB-231 breast
[27] = system: MDA-MB-435
[28] = system: MDA-N
[29] = system: MOLT-4 leukemia
[30] = system: NCI-H226 lung
[31] = system: NCI-H23 lung
[32] = system: NCI-H522 lung
[33] = system: NCI/ADR-RES ovarian
[34] = system: OVCAR-3 ovarian
[35] = system: OVCAR-4 ovarian
[36] = system: OVCAR-5 ovarian
[37] = system: OVCAR-8 ovarian
[38] = system: PC-3 prostate
[39] = system: RPMI-8226 leukemia
[40] = system: RXF 393 renal
[41] = system: SF-268 CNS
[42] = system: SF-295 CNS
[43] = system: SF-539 CNS
[44] = system: SK-MEL-2 melanoma
[45] = system: SK-MEL-5 melanoma
[46] = system: SK-OV-3 ovarian
[47] = system: SN12C renal
[48] = system: SNB-19 CNS
[49] = system: SNB-75 CNS
[50] = system: SR leukemia
[51] = system: SW-620 colon
[52] = system: T-47D breast
[53] = system: TK-10 renal
[54] = system: U251 CNS
[55] = system: UACC-257 melanoma
[56] = system: UACC-62 melanoma
[57] = system: UO-31 renal
[58] = system: NCI-H460 lung
[59] = system: SK-MEL-28 melanoma

Molecule `CCC(C#N)N(Cc1ccc(CN(C(=O)c2ccccc2)C(C#N)CC)cc1)C(=O)c1ccccc1` (stereo unspecified) has a TGI [1] of 50.2 µM, a TGI [2] of 65 µM and a TGI [3] of over 100 µM. It also gave a TGI [4] of over 100 µM, a TGI [5] of 72.7 µM and a TGI [6] of over 100 µM. For the same molecule, the TGI [7] was 51.1 µM, the TGI [8] was 31.3 µM and the TGI [9] was over 100 µM. It also gave a TGI [10] of 93.3 µM, a TGI [11] of 36.7 µM and a TGI [12] of 96.8 µM. It also gave a TGI [13] of over 100 µM, a TGI [14] of 84.1 µM and a TGI [15] of 90.4 µM. For the same molecule, the TGI [16] was 35.3 µM, the TGI [17] was over 100 µM and the TGI [18] was 43.9 µM. The TGI [19] was 61.8 µM, the TGI [20] was over 100 µM and the TGI [21] was 67.7 µM. It also gave a TGI [22] of 31.4 µM, a TGI [23] of over 100 µM and a TGI [24] of 88.5 µM. The TGI [25] was 93.6 µM, the TGI [26] was 85.2 µM and the TGI [27] was 65.7 µM. The TGI [28] was over 100 µM, the TGI [29] was 65 µM and the TGI [30] was 78.1 µM. For the same molecule, the TGI [31] was over 100 µM, the TGI [32] was over 100 µM and the TGI [33] was over 100 µM. The TGI [34] was 48.2 µM, the TGI [35] was 80.9 µM and the TGI [36] was over 100 µM. For the same molecule, the TGI [37] was over 100 µM, the TGI [38] was over 100 µM and the TGI [39] was 42.7 µM. The TGI [40] was over 100 µM, the TGI [41] was over 100 µM and the TGI [42] was over 100 µM. For the same molecule, the TGI [43] was 48.6 µM, the TGI [44] was 56.8 µM and the TGI [45] was 25.8 µM. It also gave a TGI [46] of over 100 µM, a TGI [47] of 69.3 µM and a TGI [48] of over 100 µM. It also gave a TGI [49] of 68.8 µM, a TGI [50] of over 100 µM and a TGI [51] of 93 µM. The TGI [52] was 67 µM, the TGI [53] was 74.4 µM and the TGI [54] was 56.1 µM. It also gave a TGI [55] of 49 µM, a TGI [56] of 60.1 µM and a TGI [57] of 93.4 µM.
Molecule `COC(=O)/C=C1/OC(c2ccc(Br)cc2)=C(Br)C1=O` has a TGI [1] of 6.31 µM, a TGI [2] of 30.4 µM and a TGI [3] of 33.6 µM. The TGI [4] was 16.8 µM, the TGI [5] was 11.7 µM and the TGI [6] was 6.32 µM. The TGI [7] was 6.22 µM, the TGI [8] was 4.12 µM and the TGI [9] was 25.4 µM. For the same molecule, the TGI [10] was 32 µM, the TGI [11] was 18.6 µM and the TGI [12] was 7.75 µM. The TGI [13] was 14.2 µM, the TGI [14] was 7.87 µM and the TGI [15] was 17.5 µM. For the same molecule, the TGI [16] was 25.2 µM, the TGI [17] was 28.1 µM and the TGI [18] was 11.3 µM. The TGI [19] was 17 µM, the TGI [20] was 6.58 µM and the TGI [21] was 22.4 µM. The TGI [22] was 8.4 µM, the TGI [23] was 10.8 µM and the TGI [24] was 21.5 µM. For the same molecule, the TGI [25] was 25.5 µM, the TGI [26] was 8.17 µM and the TGI [27] was 20.9 µM. The TGI [28] was 12.6 µM, the TGI [29] was 6.87 µM and the TGI [30] was 34.7 µM. For the same molecule, the TGI [31] was 17.1 µM, the TGI [58] was 36.6 µM and the TGI [32] was 10.7 µM. For the same molecule, the TGI [33] was 32.9 µM, the TGI [34] was 9.71 µM and the TGI [35] was 11.6 µM. For the same molecule, the TGI [36] was 12.5 µM, the TGI [37] was 10.5 µM and the TGI [38] was 17.5 µM. It also gave a TGI [39] of 6.06 µM, a TGI [40] of 11.1 µM and a TGI [41] of 17 µM. The TGI [42] was 28.9 µM, the TGI [43] was 12.7 µM and the TGI [44] was 24.8 µM. For the same molecule, the TGI [59] was 27.2 µM, the TGI [45] was 19.9 µM and the TGI [46] was 38.2 µM. It also gave a TGI [47] of 17.6 µM, a TGI [48] of 28.9 µM and a TGI [49] of 17.5 µM. For the same molecule, the TGI [50] was 3.31 µM, the TGI [51] was 7.49 µM and the TGI [52] was 15.1 µM. The TGI [53] was 17.6 µM, the TGI [54] was 6.88 µM and the TGI [55] was 27.5 µM. It also gave a TGI [56] of 20.5 µM and a TGI [57] of 24.4 µM.
